Here are results for 19 compounds from patent US20100286181A1, “PYRROLE DERIVATIVES WITH ANTIBACTERIAL ACTIVITY” (ASTRAZENECA AB, priority 2006, published 2010).

Each structure is given as a SMILES string. In brackets after ≈: the same amount, converted by molar mass. Where only a bound is given, the exact number is not on record here.

For assay [1], the target named is GyrB ATPase activity (E. coli GyrA, E. coli GyrB) (Escherichia coli, UniProt P0AES6). Kind of assay: GyrB ATPase inhibition activity assay (ammonium molybdate/malachite green phosphate detection). In kind it is biochemical. The conditions noted are these: figure quoted may be an average of two or more results. The method in brief: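 E. coli GyrA/GyrB (2.5 nM each) with 5 μg/ml sheared DNA and 250 μM ATP in 50 mM HEPES pH 7.5, 5.5 mM MgCl2, 75 mM ammonium acetate. Released phosphate detected with ammonium molybdate/malachite green reagent. IC50 may be an average of two or more results.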

For another assay, the system named is Streptococcus pneumoniae. Kind of assay: Bacterial susceptibility testing in liquid media (MIC), Streptococcus pneumoniae. In kind it is cell-based. The conditions noted are these: against Streptococcus pneumoniae; lowest concentration reducing growth by 80% or more, 37° C., 24 hrs. The text has this: (§1) Compounds may be tested for antimicrobial activity by susceptibility testing in liquid media. Compounds may be dissolved in dimethylsulfoxide and tested in 10 doubling dilutions in the susceptibility assays. The organisms used in the assay may be grown overnight on suitable agar media and then suspended in a liquid medium appropriate for the growth of the organism. The can be was a 0.5 McFarland and a further 1 in 10 dilution can be made into the same liquid medium to prepare the final organism suspension in 100 pt. Plates can be incubated under appropriate conditions at 37° C. for 24 hrs prior to reading. The Minimum Inhibitory Concentration (MIC) may be determined as the lowest drug concentration able to reduce growth by 80% or more.

Another assay deals with HIN446. Kind of assay: Bacterial susceptibility testing in liquid media (MIC), HIN446. Type of assay: cell-based. The following applies: strain HIN446.
From the text: as §1

A further assay relates to SPN548. Kind of assay: Bacterial susceptibility testing in liquid media (MIC), SPN548. The conditions noted are these: strain SPN548. Type of assay: cell-based.
From the text: as §1

The next assay relates to SAU516. Kind of assay: Bacterial susceptibility testing in liquid media (MIC), SAU516. In kind it is cell-based. The conditions noted are these: strain SAU516.
From the text: as §1

A further assay deals with MCA445. Kind of assay: Bacterial susceptibility testing in liquid media (MIC), MCA445. The following applies: strain MCA445. Type of assay: cell-based.
From the text: as §1

A further assay has as its system EFM073. Kind of assay: Bacterial susceptibility testing in liquid media (MIC), EFM073. Type of assay: cell-based. The conditions noted are these: strain EFM073.
From the text: as §1

For orientation: IC50 means the concentration that gives 50% inhibition. A high value points to a need for much substance. One may read the MIC as the smallest concentration in the dilution series that meets the test's criterion for growth inhibition. A lower MIC goes with a more susceptible organism. Regarding `COC(=O)c1cnc(N2CCC(NC(=O)c3[nH]c(C)c(Cl)c3Cl)C3(C2)OCCO3)s1` (centres unmarked) [Example 1, Methyl 2-(10-{[(3,4-dichloro-5-methyl-1H-pyrrol-2-yl)carbonyl]amino}-1,4-dioxa-7-azaspiro[4.5]dec-7-yl)-1,3-thiazole-5-carboxylate], the IC50 in assay [1] is 0.463 µM. In the assay on Streptococcus pneumoniae, this compound gave a minimum inhibitory concentration (MIC) of 1 µg/mL (≈ 2.1 µM). With `CNC(=O)c1nc(N2CCC(NC(=O)c3[nH]c(C)c(Cl)c3Cl)C3(C2)OCCCO3)sc1C(=O)O` (centres unmarked) [Example 18, 2-(11-{[(3,4-Dichloro-5-methyl-1H-pyrrol-2-yl)carbonyl]amino}-1,5-dioxa-8-azaspiro[5.5]undec-8-yl)-4-[(methylamino)carbonyl]-1,3-thiazole-5-carboxylic acid], the MIC HIN446 in the assay on HIN446 worked out at 0.5 µg/mL (≈ 0.939 µM). Further, the MIC SPN548 against SPN548 was < 0.063 µg/mL. The compound further yielded an MIC SAU516 in the assay on SAU516 of 0.25 µg/mL (≈ 0.47 µM). Also, in assay [1], the IC50 is < 0.00977 µM. The MIC MCA445 in the assay on MCA445 was < 0.063 µg/mL. In the assay on EFM073, the MIC EFM073 was found to be 0.25 µg/mL (≈ 0.47 µM). On to `Cc1[nH]c(C(=O)NC2CCN(c3ncc(C(=O)O)s3)CC23OCCCO3)c(Cl)c1Cl` (centres unmarked) [Example 16, 2-(11-{[(3,4-Dichloro-5-methyl-1H-pyrrol-2-yl)carbonyl]amino}-1,5-dioxa-8-azaspiro[5.5]undec-8-yl)-1,3-thiazole-5-carboxylic acid], for which the MIC HIN446 in the assay with HIN446 came out at 1 µg/mL (≈ 2.1 µM). Also, in the assay on SPN548, the MIC SPN548 is < 0.063 µg/mL. Moreover, the MIC SAU516 against SAU516 came to 2 µg/mL (≈ 4.21 µM). Besides, the IC50 in assay [1] is < 0.00977 µM. Also, the MIC MCA445 in the assay on MCA445 turned out to be 0.13 µg/mL (≈ 0.273 µM). In the assay with EFM073, this compound gave an MIC EFM073 of 1 µg/mL (≈ 2.1 µM). In turn, `COC1(OC)CN(c2ncc(C(=O)O)s2)CCC1NC(=O)c1[nH]c(C)c(Cl)c1Cl` (centres unmarked) [Example 20, 2-(4-{[(3,4-Dichloro-5-methyl-1H-pyrrol-2-yl)carbonyl]amino}-3,3-dimethoxypiperidin-1-yl)-1,3-thiazole-5-carboxylic acid] had an MIC HIN446 in the assay on HIN446 of 1 µg/mL (≈ 2.16 µM). Moreover, in the assay with SPN548, the MIC SPN548 was found to be 0.13 µg/mL (≈ 0.281 µM). The same compound yielded an MIC SAU516 with SAU516 of 2 µg/mL (≈ 4.32 µM). In addition, the IC50 in assay [1] is < 0.0671 µM. For the same compound, in the assay on MCA445, the MIC MCA445 worked out at 0.5 µg/mL (≈ 1.08 µM). Besides, the MIC EFM073 against EFM073 was 2 µg/mL (≈ 4.32 µM). With `CONC(=O)c1cccc2nc(N3CC[C@@H](NC(=O)c4[nH]c(C)c(Cl)c4Cl)[C@@H](n4ccnn4)C3)sc12` [Example 125, 2-[(3S,4R)-4-{[(3,4-Dichloro-5-methyl-1H-pyrrol-2-yl)carbonyl]amino}-3-(1H-1,2,3-triazol-1-yl)piperidin-1-yl]-N-methoxy-1,3-benzothiazole-7-carboxamide], the IC50 in assay [1] was < 0.00977 µM. For `C=CCOC(=O)c1sc(N2CCC(NC(=O)c3[nH]c(C)c(Cl)c3Cl)/C(=N/OC)C2)nc1C(=O)NCCOC` (centres unmarked) [Example 30, Allyl 2-[(3E)-4-{[(3,4-dichloro-5-methyl-1H-pyrrol-2-yl)carbonyl]amino}-3-(methoxyimino)piperidin-1-yl]-4-{[(2-methoxyethyl)amino]carbonyl}-1,3-thiazole-5-carboxylate], in assay [1], inhibition was half-maximal at 0.0861 µM (IC50).

Take `C=C1COC2(CN(c3ncc(C(=O)O)s3)CCC2NC(=O)c2[nH]c(C)c(Cl)c2Cl)OC1` (centres unmarked) [Example 56, 2-(11-{[(3,4-Dichloro-5-methyl-1H-pyrrol-2-yl)carbonyl]amino}-3-methylene-1,5-dioxa-8-azaspiro[5.5]undec-8-yl)-1,3-thiazole-5-carboxylic acid]: the half-maximal inhibitory concentration (IC50) in assay [1] was < 0.00977 µM. Turning to `COCCNC(=O)c1nc(N2CCC(NC(=O)c3[nH]c(C)c(Cl)c3Cl)C3(C2)OCCO3)sc1C(=O)O` (centres unmarked) [Example 14, 2-(10-{[(3,4-Dichloro-5-methyl-1H-pyrrol-2-yl)carbonyl]amino}-1,4-dioxa-7-azaspiro[4.5]dec-7-yl)-4-{[(2-methoxyethyl)amino]carbonyl}-1,3-thiazole-5-carboxylic acid], the IC50 in assay [1] was < 0.00977 µM. On to `COCC(COC)(COC)NC(=O)c1nc(N2CC[C@@H](NC(=O)c3[nH]c(C)c(Cl)c3Cl)[C@@H](n3cc(C)nn3)C2)sc1C(=O)O` [Example 106], for which the IC50 in assay [1] is < 0.432 µM.

`COC(=O)c1cnc(N2CCC(NC(=O)c3[nH]c(C)c(Cl)c3Cl)C(OC)(OC)C2)s1` (centres unmarked) [Example 10, Methyl 2-(4-{[(3,4-dichloro-5-methyl-1H-pyrrol-2-yl)carbonyl]amino}-3,3-dimethoxypiperidin-1-yl)-1,3-thiazole-5-carboxylate] came in with an IC50 in assay [1] of 0.169 µM. As for `CCOC(=O)c1sc(N2CC[C@@H](NC(=O)c3[nH]c(C)c(Cl)c3Cl)[C@@H](n3cc(C#N)nn3)C2)nc1C(=O)NCCOC` [Example 92, Ethyl 2-[(3S,4R)-3-(4-cyano-1H-1,2,3-triazol-1-yl)-4-[(3,4-dichloro-5-methyl-1H-pyrrole-2-carbonyl)amino]-1-piperidinyl]-4-(2-methoxyethylcarbamoyl)-1,3-thiazole-5-carboxylate], in assay [1], the 50% inhibitory concentration (IC50) is < 0.00977 µM. For `CCOC(=O)c1sc(N2CC[C@H](NC(=O)c3[nH]c(C)c(Cl)c3Cl)[C@H](n3cncn3)C2)nc1C(=O)O` (racemic) [Example 49, cis(±)2-[4-{[(3,4-Dichloro-5-methyl-1H-pyrrol-2-yl)carbonyl]amino}-3-(1H-1,2,4-triazol-1-yl)piperidin-1-yl]-5-(ethoxycarbonyl)-1,3-thiazole-4-carboxylic acid], the IC50 in assay [1] was < 0.00977 µM.

As to `CNC(=O)c1nc(N2CCC(NC(=O)c3[nH]c(C)c(Cl)c3Cl)C3(C2)OCCO3)sc1C(=O)OC(C)C` (centres unmarked) [Example 3, Isopropyl 2-(10-{[(3,4-dichloro-5-methyl-1H-pyrrol-2-yl)carbonyl]amino}-1,4-dioxa-7-azaspiro[4.5]dec-7-yl)-4-[(methylamino)carbonyl]-1,3-thiazole-5-carboxylate], the half-inhibitory concentration (IC50) in assay [1] was 0.27 µM. `COC(=O)c1cnc(N2CC[C@@H](NC(=O)c3[nH]c(C)c(Cl)c3Cl)[C@@H](n3ccnn3)C2)s1` [Example 70, Methyl 2-[(3S,4R)-4-{[(3,4-dichloro-5-methyl-1H-pyrrol-2-yl)carbonyl]amino}-3-(1H-1,2,3-triazol-1-yl)-1-piperidinyl]-1,3-thiazole-5-carboxylate] had an IC50 in assay [1] of 0.0124 µM. As for `COCC(COC)NC(=O)c1nc(N2CC[C@@H](NC(=O)c3[nH]c(C)c(Cl)c3Cl)[C@@H](n3ccnn3)C2)sc1C(=O)O` [Example 118], in assay [1], the IC50 was < 0.00977 µM. For `COCCNC(=O)c1nc(N2CCC(NC(=O)c3[nH]c(C)c(Cl)c3Cl)/C(=N/OC)C2)sc1C(=O)O` (centres unmarked) [Example 23, 2-[(3E)-4-{[(3,4-Dichloro-5-methyl-1H-pyrrol-2-yl)carbonyl]amino}-3-(methoxyimino)piperidin-1-yl]-4-{[(2-methoxyethyl)amino]carbonyl}-1,3-thiazole-5-carboxylic acid], in assay [1], the IC50 is < 0.00977 µM.

As for `COCC(COC)NC(=O)c1nc(N2CC[C@@H](NC(=O)c3[nH]c(C)c(Cl)c3Cl)[C@@H](n3cc(CO)nn3)C2)sc1C(=O)O` [Example 114], the half-inhibitory concentration (IC50) in assay [1] was < 0.00977 µM.

As for `CO/N=C1\CN(c2ncc(C=O)s2)CCC1NC(=O)c1[nH]c(C)c(Cl)c1Cl` (centres unmarked) [Example 32, 3,4-Dichloro-N-[(3E)-1-(5-formyl-1,3-thiazol-2-yl)-3-(methoxyimino)piperidin-4-yl]-5-methyl-1H-pyrrole-2-carboxamide], 0.0593 µM corresponded to half-maximal inhibition in assay [1] (IC50). With `COC(=O)c1cnc(N2CC[C@H](NC(=O)c3[nH]c(C)c(Cl)c3Cl)[C@H](n3ccnc3)C2)s1` (racemic) [Example 38, cis(±)Methyl 2-[4-{[(3,4-dichloro-5-methyl-1H-pyrrol-2-yl)carbonyl]amino}-3-(1H-imidazol-1-yl)piperidin-1-yl]-1,3-thiazole-5-carboxylate], it took 0.0909 µM to reach half-maximal inhibition in assay [1] (IC50).
